Experimental data published in paper PMC8763382, “2-Sulfonylpyrimidines as Privileged Warheads for the Development of S. aureus Sortase A Inhibitors” (Frontiers in Molecular Biosciences, 2022).
Values joined by “and” are separate entries in the source; they are usually repeats but may differ in a detail not shown here. Identical values can stand only once.

What was measured:
[1] = biological target: T1, NS2B-NS3 from Zika virus (ZIKV) (Zika virus, UniProt Q32ZE1); assay: protease selectivity panel, fluorometric assay ZIKV NS2B/NS3 protease; format: biochemical; conditions: 100 µM inhibitor; read-out: ZIKV inhibition relative to the DMSO control
T1 construct: The ZIKV NS2B/NS3 protease is a serine protease and contains two non-catalytic cysteine residues
T1 sequence (Q32ZE1 1499-1676): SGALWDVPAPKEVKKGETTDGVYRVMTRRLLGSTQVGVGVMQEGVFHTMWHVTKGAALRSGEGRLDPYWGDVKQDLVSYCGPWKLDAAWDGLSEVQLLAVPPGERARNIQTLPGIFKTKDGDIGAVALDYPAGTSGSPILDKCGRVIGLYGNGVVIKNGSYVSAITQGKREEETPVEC
T1 sequence (Q32ZE1 1421-1460): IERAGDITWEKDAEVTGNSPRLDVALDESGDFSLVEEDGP
Method: (§1) To investigate how these sulfonylpyrimidines affect the activity of other cysteine and serine proteases, a selectivity panel was constructed from a matrix of 6 diverse sulfonylpyrimidines and 6 different proteases. The compounds were assayed at a final compound concentration of 100 µM for the cysteine proteases human cathepsin B (hCatB), cathepsin L (hCatL), and T. brucei rhodesain (Rd). Furthermore, the serine proteases NS2B-NS3 from Zika virus (ZIKV), the homologous protease from Dengue virus (DENV), and the human protease urokinase plasminogen activator (uPA) were tested for their susceptibility.
(§2) Fluorometric assays of the ZIKV/DENV NS2B/NS3 protease were performed as described previously ([Maus et al., 2021]). The assay was carried out in triplicates at 25°C in assay buffer (50 mM Tris, pH 9.0, 20% glycerol (v/v), and 1 mM CHAPS). 100 µM Boc-Gly-Arg-Arg-AMC (Bachem, Bubendorf, Switzerland) was used as a substrate. Fluorometric assays for cathepsin B, cathepsin L, and rhodesain (Calbiochem, Merck Millipore, Burlington, Massachusetts) were performed as described previously ([Klein et al., 2020a]). Cbz-Phe-Arg-AMC (Bachem, Bubendorf, Switzerland) was used as substrate (100 μM for cathepsin B, 6.5 μM for cathepsin L, and 10 µM for rhodesain). Fluorometric assays for urokinase plasminogen activator were performed as described previously ([Angelini et al., 2012]). 240 µM Cbz-Gly-Arg-Arg-AMC (Bachem, Bubendorf, Switzerland) was used as a substrate.

S. aureus SrtA [2] = biological target: T2, S. aureus SrtA (Staphylococcus aureus, UniProt Q2FV99); assay: fluorometric enzyme assay of SrtA transpeptidation (Abz-LPETG-Dap(Dnp)-OH substrate); format: biochemical; conditions: for S. I. (k 2nd/k chem): SrtA k 2nd over cysteine k chem; for k inact: maximum inactivation rate; for k inact / KI (inactivation) / k 2nd: Tris pH 7.50, n. i. = <20% inhibition at 100 µM; for KI (inactivation): read-out: KI, dissociation constant of the reversible enzyme-inhibitor complex; for inhibition at 100 µM: read-out: SrtA inhibition relative to the DMSO control; for k 2nd: second-order rate of inhibition
T2 construct: His tag (inferred from IMAC on a HisTrap column); made in house; host or cells: E. coli BL21 Gold (DE3)
T2 sequence (Q2FV99 60-206): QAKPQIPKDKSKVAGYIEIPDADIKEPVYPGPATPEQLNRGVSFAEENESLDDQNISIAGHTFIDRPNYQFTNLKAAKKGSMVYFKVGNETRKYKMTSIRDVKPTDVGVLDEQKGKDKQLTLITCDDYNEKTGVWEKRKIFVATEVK
Method: To evaluate the inhibition potency of the parent sulfonylpyrimidine 4, this compound was tested by means of a fluorometric enzyme assay with recombinantly expressed S. aureus SrtA ([Schmohl et al., 2017b]) and Abz-LPETG-Dap (Dnp)-OH as substrate. […] To verify the irreversible mode of inhibition, we determined the maximum inactivation rate k inact, the dissociation constant of the reversible enzyme-inhibitor complex KI, and the second-order rate of inhibition k 2nd. For compound 4, a k inact = 0.00065 s^−1 was found, which is very low compared to other covalent SrtA inhibitors ([Chan et al., 2017]; [Barthels et al., 2020]; [Jaudzems et al., 2020]).
Inhibition assays of S. aureus SrtA transpeptidation reactions were performed as described previously ([Barthels et al., 2020]). Briefly, the recombinantly expressed SrtA (final concentration: 1 µM) was incubated in assay buffer (50 mM Tris, 150 mM NaCl, 5 mM CaCl2, pH 7.50) with 25 µM of the FRET-pair substrate Abz-LPETG-Dap (Dnp)-OH (Genscript, Piscataway, New Jersey) and 0.5 mM tetraglycine (Sigma Aldrich, St. Louis, Missouri). Inhibitors were added from DMSO stocks. Reactions were initiated by addition of SrtA and monitored for 30 min at 30°C in an Infinite M200 Pro plate reader with λex 320 nm/λem 430 nm (Tecan, Männedorf, Switzerland). Three technical replicates were carried out for each inhibitor in black flat-bottom 96-well plates (Greiner bio-one, Kremsmünster, Austria). The enzyme kinetics of irreversible SrtA inactivation were analyzed as described previously ([Barthels et al., 2020]).

cathepsin L (hCatL) = biological target: T3, cathepsin L (hCatL) (Homo sapiens, UniProt P07711); assay: protease selectivity panel, fluorometric assay cathepsin L; format: biochemical; conditions: 100 µM inhibitor; read-out: CatL inhibition relative to the DMSO control
T3 construct: purchased Calbiochem, Merck Millipore
T3 sequence (P07711 114-333): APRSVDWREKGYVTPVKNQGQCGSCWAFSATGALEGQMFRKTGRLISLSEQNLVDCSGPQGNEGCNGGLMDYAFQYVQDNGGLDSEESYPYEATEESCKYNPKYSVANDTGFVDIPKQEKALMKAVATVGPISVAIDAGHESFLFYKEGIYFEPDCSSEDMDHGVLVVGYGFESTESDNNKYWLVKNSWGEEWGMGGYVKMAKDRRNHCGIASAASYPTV
Method: as §1, §2

[3] = in-solution reaction with free cysteine (ESI-MS / LC/MS); format: physicochemical; conditions: for time to quantitative reaction with cysteine: compound 100 µM, cysteine 100 µM, phosphate buffered solution pH 7.5
Method: Thus, we determined the point of nucleophilic thiol attack by means of ESI mass spectrometry between the reaction of compound 7a and cysteine in phosphate buffered solution at pH 7.5.
Furthermore, the influence of different solvents on the reaction of sulfonylpyrimidines with thiols in solution was investigated.
To a solution of 100 µM cysteine in phosphate-buffered saline (1×, pH 7.5), compound 5a or 7a (100 μM, 5% DMSO) was added and incubated for 10 min at room temperature. The negative labeling control was performed by mock treatment with DMSO. Samples were analyzed by LC/MS using an Agilent 1100 series HPLC system with an Agilent Poroshell 120 EC-C18 column (150 × 2.10 mm 4 μm; mobile phase: ACN/H2O 45:55 + 0.1% formic acid; flow rate: 0.4 ml/min) and electron spray ionization with the Agilent 1100 series LC/MSD Trap in positive ionization mode.

S. aureus SrtA [4] = biological target: T2, S. aureus SrtA; assay: fluorometric enzyme assay of SrtA transpeptidation (Abz-LPETG-Dap(Dnp)-OH substrate); format: biochemical
[5] = biological target: human protease urokinase plasminogen activator (uPA) (Homo sapiens, UniProt P00749); assay: protease selectivity panel, fluorometric assay urokinase plasminogen activator; format: biochemical; conditions: 100 µM inhibitor; n. i. = no inhibition at 100 µM; read-out: uPA inhibition relative to the DMSO control
Method: as §1, §2

[6] = biological target: T4, human cathepsin B (hCatB) (Homo sapiens, UniProt P07858); assay: protease selectivity panel, fluorometric assay cathepsin B; format: biochemical; conditions: 100 µM inhibitor; read-out: CatB inhibition relative to the DMSO control
T4 construct: purchased Calbiochem, Merck Millipore
Method: as §1, §2

[7] = cysteine reactivity assay (competitive fluorescence assay with probe 8); format: physicochemical; conditions: phosphate buffer (1×PBS) pH 7.5
Text: In order to study the kinetics of sulfonylpyrimidines reacting with free cysteine in solution, a strategy for a competitive fluorescence-based assay was adapted from previous works ([Epps and Taylor, 2001]; [Sameshima et al., 2017]). […] The reaction of probe 8 with cysteine liberates 4-methylumbelliferone as a fluorometrically detectable product (Figure 7A), and thus, the fluorescence increase can be described by the second-order rate constant k probe (Equation 1).
Upon the addition of competitive and irreversible cysteine modifiers such as sulfonylpyrimidines, the fluorescence increase of the probe reaction was hyperbolically attenuated (Figure 7B). According to the conceptual deduction described previously ([Epps and Taylor, 2001]; [Sameshima et al., 2017]), the experimental fluorescence curves can be analyzed by nonlinear regression as first-order reaction progress curves (Equation 2). The parameter k obs describes the curvature corresponding to the sum of the competing kinetics (Equation 3). Under the assumptions that 1) the competitive reaction between sulfonylpyrimidines vs. probe with cysteine is started by simultaneous addition, and 2) sulfonylpyrimidines are added at a much higher concentration than cysteine (5 µM) and the probe (5 µM), the k obs values depend substantially on the k chem value. The compound-specific second-order inactivation parameter k chem can be determined by linear regression from the k obs values of the dilution series (Equation 4). d[FL]/dt=kprobe[Cys][probe] (1) FL=[Cys]total⋅kprobe [probe]/kprobe [probe] + kchem [sulfonylpyrimidine](1−e^−kobs⋅t) (2) kobs=kchem [sulfonylpyrimidine]+kprobe [probe] (3) kchem=kobs/[sulfonylpyrimidine] (4)
Kinetic characterization of the reaction between sulfonylpyrimidines and cysteine was performed in degassed phosphate buffer (1×PBS, pH 7.5) or individual cases in bicarbonate buffer (20 mM NaHCO3, 100 mM NaCl, pH 7.5). Three technical replicates were carried out for each sulfonylpyrimidine in black flat-bottom 96-well plates. For this purpose, 50 µL buffered solution (including 5% (v/v) DMSO) of the respective sulfonylpyrimidine derivative (final: 250–3 µM) and the cysteine reactive probe 8 (final: 5 µM) were premixed. Reactions were initiated by the addition of 50 µL cysteine (final: 5 µM), dissolved in the respective buffer, and monitored for 30 min at 30°C in an Infinite M200 Pro plate reader with λex 380 nm/λem 460 nm. To calculate k obs and k chem values, fluorescence curves were fitted using the same non-linear regression as for in vitro inhibition of SrtA ([Barthels et al., 2020]).

T. brucei rhodesain (Rd) = biological target: T5, T. brucei rhodesain (Rd) (Trypanosoma brucei rhodesiense, UniProt Q95PM0); assay: protease selectivity panel, fluorometric assay rhodesain; format: biochemical; conditions: 100 µM inhibitor, n. i. = no inhibition at 100 µM; for inhibition at 100 µM: read-out: Rd inhibition relative to the DMSO control
T5 construct: purchased Calbiochem, Merck Millipore
T5 sequence (Q95PM0 entry or part of it): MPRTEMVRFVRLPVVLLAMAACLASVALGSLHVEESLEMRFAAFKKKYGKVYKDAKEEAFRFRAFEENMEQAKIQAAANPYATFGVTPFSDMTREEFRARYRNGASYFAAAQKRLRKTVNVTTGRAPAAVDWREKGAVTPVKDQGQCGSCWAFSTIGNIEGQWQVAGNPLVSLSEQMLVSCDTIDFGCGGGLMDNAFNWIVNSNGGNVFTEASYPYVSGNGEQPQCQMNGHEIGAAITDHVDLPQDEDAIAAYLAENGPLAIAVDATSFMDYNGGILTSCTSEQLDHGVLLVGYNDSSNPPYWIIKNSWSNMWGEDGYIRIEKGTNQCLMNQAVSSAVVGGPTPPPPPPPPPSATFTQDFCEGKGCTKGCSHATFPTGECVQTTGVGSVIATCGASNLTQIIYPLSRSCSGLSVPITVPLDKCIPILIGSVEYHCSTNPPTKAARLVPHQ
Method: as §1, §2

DENV NS2B/NS3 protease = DENV NS2B/NS3 protease (Dengue virus type 2, UniProt P29990); assay: protease selectivity panel, fluorometric assay DENV NS2B/NS3 protease; format: biochemical; conditions: 100 µM inhibitor, n. i. = no inhibition at 100 µM; for inhibition at 100 µM: read-out: DENV inhibition relative to the DMSO control
DENV NS2B/NS3 protease, sequence (P29990 1398-1437): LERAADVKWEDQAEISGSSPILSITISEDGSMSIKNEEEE
DENV NS2B/NS3 protease, sequence (P29990 1476-1653): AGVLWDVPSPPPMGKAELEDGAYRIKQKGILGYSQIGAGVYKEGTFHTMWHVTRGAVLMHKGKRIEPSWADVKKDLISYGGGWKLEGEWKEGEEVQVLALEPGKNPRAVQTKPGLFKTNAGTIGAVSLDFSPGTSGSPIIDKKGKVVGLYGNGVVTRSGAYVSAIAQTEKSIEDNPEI
Method: as §1, §2

S. aureus SrtA [8] = biological target: T2, S. aureus SrtA; assay: MALDI-TOF-MS of SrtA treated with inhibitor; conditions: SrtA 10 µM, inhibitor 100 µM, 1 h room temperature
Method: By using MALDI-TOF mass spectrometry, we aimed to determine the mode of inhibitory action in an enzymatic context. For the native SrtA, we found a protein mass at m/z = 17,806.
An S. aureus SrtA stock solution was diluted in 100 μL assay buffer (50 mM Tris, 150 mM NaCl, 5 mM CaCl2, pH 7.50) to a final concentration of 10 µM. Compound 7a was dissolved in DMSO and added to SrtA at a final concentration of 100 μM. The protein samples were allowed to react for 1 h at room temperature and subsequently, these were desalted using Zeba^TM Spin desalting columns (7 kDa MWCO, 0.5 ml; Thermo Scientific) according to the manufacturer’s instructions. For MALDI sample preparation, the desalted solution was mixed 1:1 with a matrix combination of equal amounts α-cyano-4-hydroxycinnamic acid (20 mg/ml dissolved in 70% acetonitrile and 30% of formic acid in water at a concentration of 5%) and 2,5-dihydroxybenzoic acid (20 mg/ml dissolved in 70% acetonitrile and 30% of trifluoroacetic acid in water at a concentration of 0.1%). The resulting mixture was allowed to dry slowly on the MALDI target prior to introduction into the mass spectrometer. […] The acceleration voltage was set to 20 kV and the mass spectra were recorded in positive ion linear mode. […] Samples were measured at a laser power of 60% with random walk ionization across the sample spot.

His120 = His120 (UniProt position 120, ISIAGHTFIDR); conditions: free enzyme (inferred); cited from earlier work
Cys184 = Cys184 (UniProt position 184, LTLITCDDYNE); assay: NMR; conditions: free enzyme (inferred); cited from earlier work

Row | Compound | inhibition at 100 µM [1] | S. I. (k 2nd/k chem) (S. aureus SrtA [2]) | k inact (S. aureus SrtA [2]) | KI (inactivation) (S. aureus SrtA [2]) | inhibition at 100 µM (S. aureus SrtA [2]) | k 2nd (S. aureus SrtA [2]) | inhibition at 100 µM (cathepsin L (hCatL)) | time to quantitative reaction with cysteine [3] | melting point | inhibition at 100 µM [5] | inhibition at 100 µM [6] | Cysteine k chem [7] | inhibition at 100 µM (T. brucei rhodesain (Rd)) | inhibition at 100 µM (DENV NS2B/NS3 protease) | further results
1 | CS(=O)(=O)c1ncc(Cl)c(C(=O)Nc2cccc(Oc3ccccc3)c2)n1 [Compound 5a] | 6.4% | 159 | 0.0077 s⁻¹ and 0.00774 ± 0.00007 s⁻¹ | 57.6 ± 3.55 µM | 99% | 8,088 M^−1min^−1 and 8,088 ± 464 M^−1min^−1 | 8.8% | < 10 min | 156 °C | 23% | 6.6% | 0.847 ± 0.277 M⁻¹ s⁻¹ | 24.6% | – | improvement of overall inhibition potency (k 2nd), factor (S. aureus SrtA [2]; versus parent compound 4): 10; reactivity with cysteine (in words) ([3]; water/DMSO mixtures, no buffer): No reactivity; k 2nd (S. aureus SrtA [4]; pH 6.5, Tris or Bis-Tris buffer): 4,384 M^−1min^−1; k 2nd (S. aureus SrtA [4]; pH 7.0, Tris or Bis-Tris buffer): 8,436 M^−1min^−1; k 2nd (S. aureus SrtA [4]; zwitterionic HEPES buffer at pH 7.5): 7,956 M^−1min^−1; DENV inhibition relative to the DMSO control (DENV NS2B/NS3 protease): n. i.
2 | CS(=O)(=O)c1ncc(Cl)c(C(=O)Nc2cccc(C(=O)c3ccccc3)c2)n1 [Compound 6a] | 18.6% | 327 | 0.00986 ± 0.00128 s⁻¹ | 29.6 ± 9.39 µM | 98.4% | 20,785 ± 4,074 M^−1min^−1 | 18% | – | 175 °C | 2.2% | 5.6% | 1.06 ± 0.14 M⁻¹ s⁻¹ | – | 5.1% | fold more potent based on the k 2nd value (S. aureus SrtA [2]; versus virtual screening hit 5a): 2.5 fold; Rd inhibition relative to the DMSO control (T. brucei rhodesain (Rd)): n. i.
3 | CS(=O)(=O)c1ncc(Br)c(C(=O)Nc2cccc(C(=O)c3ccccc3)c2)n1 [Compound 7a] | – | 268 | 0.01493 ± 0.00132 s⁻¹ | 32 ± 5.07 µM | – | 28,185 ± 2,117 M^−1min^−1 | – | less than 10 min | – | – | – | 1.748 ± 0.375 M⁻¹ s⁻¹ | – | – | covalent modification of SrtA (in words) (S. aureus SrtA [8]): quantitative conversion
4 | Sortase A (SrtA) (Staphylococcus aureus) | – | – | – | – | – | – | – | – | – | – | – | – | – | – | pKa (His120): 6.3; pKa (Cys184): 9.4
5 | CS(=O)(=O)c1ncc(Br)c(C(=O)Nc2cccc(Oc3ccccc3)c2)n1 [Compound 7b] | 18.3% | 134 | 0.01285 ± 0.00147 s⁻¹ | 55.9 ± 11.6 µM | 99.2% | 13,998 ± 1,462 M^−1min^−1 | 28.5% | – | 153 °C | 11.2% | 12.5% | 1.735 ± 0.323 M⁻¹ s⁻¹ | 4.7% | 5.2% | –
